Experimental data published in patent publication US12006289B2, “Potassium channel inhibitors” (Saniona A/S, priority 2019, dated 2024).

Legend:
[1] = Solubility of compounds in 50 mM phosphate buffer pH 7.4 by HPLC; format: physicochemical
Procedure: Solubility is calculated using the following formula: […]

[2] = molecular target: erythrocyte KCa3.1 channels (Homo sapiens (Human), UniProt O15554); assay: Erythrocyte KCa3.1 assay; format: cell-based; settings: human erythrocytes, A23187-activated, 37° C.; read-out: RBC K (in vitro) Human IC50
Procedure: Human blood was drawn from healthy human volunteers in a standard heparinized blood sampling vial (Vacutainer, Li/heparin, BD Bioscience, Plymouth, UK). The erythrocytes were packed by centrifugation, and the plasma and buffy coat were removed by aspiration. Erythrocytes were washed three times in the experimental salt solution and then stored at 0° C. until use. Blood samples from NMRI mice or from Wistar rats were treated similarly. The methodological principle is outlined in Macey et al. (1978) and further described in Strøbæk et al. (2013). Activation of the erythrocyte KCa3.1 channels were obtained by addition of the Ca^2+ ionophore A23187, which causes synchronized hyperpolarization, which is reported as a CCCP-mediated shift in the unbuffered extracellular pH of the erythrocyte suspension. Standard procedure: 3 mL unbuffered experimental salt solution (in mM: 2 KCl, 154 NaCl, 0.05 CaCl2) was heated to 37° C. with stirring. Packed erythrocytes were added (50 μL, final cytocrit 1.5%), and the extracellular pH (pHo) followed with a glass/calomel (pHG200-8/REF200, Radiometer, Denmark) electrode pair. CCCP (3 μL, final concentration 20 μM) was added followed by varying concentrations of test compounds (DMSO concentration constant). After pH stabilization at ˜7.2, A23187 (3 μL, final concentration 0.33 μM) was added to initiate the experiment. After the peak hyperpolarization was attained, the intracellular pH (pHi constant during the experiment) was found by haemolysing the erythrocytes via addition of 100 μL of Triton-X100.
The erythrocyte membrane potential, Vm, was calculated according to: Vm=−61.5 mV×(pHo−pHi) and the fractional remaining Ca^2+-activated K^+-conductance at the concentration C of blocker, fGK(C), was calculated from
[formula] where the K^+ equilibrium potential EK=−107 mV, the Cl^− equilibrium potential ECl=−12 mV and the Vm(0) and Vm(C) are the peak hyperpolarizations in the control and in the presence of a concentration of C of blocker respectively.
IC50 values for compounds were calculated from a plot of fGK(C) versus C by a fit to the Hill equation, using a custom program written in the IGOR-Pro software (WaveMetrics, Lake Oswego, OR, USA). All IC50-values are reported in μM.

[3] = 50 mM potassium phosphate buffer pH 7.40, 16 hr at ~25° C., 1600 μM incubation concentration

| SMILES | Measured Solubility in pH 7.4 phosphate buffer (μM) (rounded) ([1]; 16 h, pH 7.4) | IC50 [2] | Measured Solubility in pH 7.4 phosphate buffer (mg/ml) [1, 3] | Measured Solubility in pH 7.4 phosphate buffer (μM) (rounded) [1, 3] | Measured Solubility in pH 7.4 phosphate buffer (mg/ml) ([1]; 16 h, pH 7.4) |
| --- | --- | --- | --- | --- | --- |
| CN1CCC1CN(CC(C)(C)O)C1(c2ccc(F)c(C(F)(F)F)c2)CC1 (stereo not drawn) [[16], 1-((1-(4-fluoro-3-(trifluoromethyl)phenyl)cyclopropyl)((1-methylazetidin-2-yl)methyl)amino)-2-methylpropan-2-ol] | 1600 μM | 400 nM | – | – | – |
| COC(=O)N(CCN(C)C)C1(c2ccc(F)c(C(F)(F)F)c2)CC1 [[1], Methyl N-(2-(dimethylamino)ethyl)-N-(1-(4-fluoro-3-(trifluoromethyl)phenyl)cyclopropyl) carbamate] | – | 330 nM | 0.5409 mg/ml | 1600 μM | – |
| CS(=O)(=O)N(C[C@@H]1CCCN1)C1(c2ccc(F)c(C(F)(F)F)c2)CC1 [[36], (S)—N-(1-(4-fluoro-3-(trifluoromethyl)phenyl)cyclopropyl)-N-(pyrrolidin-2-ylmethyl) methanesulfonamide] | – | 320 nM | 0.3218 mg/ml | 800 μM | – |
| COC(=O)N(C[C@@H]1CCCN1C)C1(c2ccc(F)c(C(F)(F)F)c2)CC1 [[27], Methyl (S)-(1-(4-fluoro-3-(trifluoromethyl)phenyl)cyclopropyl) ((1-methylpyrrolidin-2-yl)methyl) carbamate] | – | 300 nM | 0.5918 mg/ml | 1600 μM | – |
| COC(=O)N(C[C@H]1COCCN1)C1(c2ccc(F)c(C(F)(F)F)c2)CC1 [[42], Methyl (S)-(1-(4-fluoro-3-(trifluoromethyl)phenyl)cyclopropyl)(morpholin-3-ylmethyl) carbamate] | – | 340 nM | 0.6118 mg/ml | 1500 μM | – |
| O=C1CSc2ccccc2N1Cc1cccc(C(F)(F)F)c1 [NS6180, 4-[[3-(Trifluoromethyl)-phenyl]methyl]-2H-1,4-benzothiazin-3(4H)-one, reference compound] | – | – | – | – | 0.0009 mg/ml |
| CC(C)(O)CN(CC1CCN1)C1(c2ccc(F)c(C(F)(F)F)c2)CC1 (stereo not drawn) [[14], 1-((azetidin-2-ylmethyl)(1-(4-fluoro-3-(trifluoromethyl)phenyl)cyclopropyl)amino)-2-methyl propan-2-ol] | – | 250 nM | – | – | – |
| NC1(CNC2(c3ccc(F)c(C(F)(F)F)c3)CC2)CC1 [[47], N-((1-aminocyclopropyl)methyl)-1-(4-fluoro-3-(trifluoromethyl)phenyl)cyclopropan-1-amine] | – | 220 nM | – | – | – |
| COC(=O)N(C[C@@H]1COCCN1C)C1(c2ccc(F)c(C(F)(F)F)c2)CC1 [[40], Methyl (R)-(1-(4-fluoro-3-(trifluoromethyl)phenyl)cyclopropyl)((4-methylmorpholin-3-yl)methyl)carbamate] | – | 270 nM | – | – | – |

The remaining compounds from weak to strong by IC50 [2], led by results:

| Measured Solubility in pH 7.4 phosphate buffer (μM) (rounded) ([1]; 16 h, pH 7.4) | IC50 [2] | Measured Solubility in pH 7.4 phosphate buffer (mg/ml) [1, 3] | Measured Solubility in pH 7.4 phosphate buffer (μM) (rounded) [1, 3] | Measured Solubility in pH 7.4 phosphate buffer (mg/ml) ([1]; 16 h, pH 7.4) | SMILES |
| --- | --- | --- | --- | --- | --- |
| – | 210 nM | – | – | – | COC(=O)N(C[C@H]1CCCN1)C1(c2ccc(F)c(C(F)(F)F)c2)CC1 [[22], Methyl (R)-(1-(4-fluoro-3-(trifluoromethyl)phenyl)cyclopropyl)(pyrrolidin-2-ylmethyl)carbamate] |
| – | 110 nM | 0.5679 mg/ml | 1500 μM | – | CCOC(=O)N(C[C@@H]1CCCN1C)C1(c2ccc(F)c(C(F)(F)F)c2)CC1 [[35], Ethyl (S)-(1-(4-fluoro-3-(trifluoromethyl)phenyl)cyclopropyl)((1-methylpyrrolidin-2-yl)methyl) carbamate] |
| – | 75 nM | – | – | – | CC(C)(N)CN(C1(c2ccc(F)c(C(F)(F)F)c2)CC1)S(C)(=O)=O [[21], N-(2-amino-2-methylpropyl)-N-(1-(4-fluoro-3-(trifluoromethyl)phenyl)cyclopropyl)methanesulfonamide] |
| – | 24 nM | – | – | – | CC(C)(N)CN(C1CC1)C1(c2cccc(C(F)(F)F)c2)CC1 [[10], N1-cyclopropyl-2-methyl-N1-(1-(3-(trifluoromethyl)phenyl)cyclopropyl)propane-1,2-diamine] |
